From patent US9212164B2, “Pesticidal compositions and processes related thereto” (Dow AgroSciences LLC, priority 2012, dated 2015)

Legend:
[1] = test system: Cabbage Looper (CL) (Trichoplusia ni); assay: Bioassays on CL, 128-well diet tray assay; format: in vivo; conditions: 168 h, 50 μg/cm^2 on artificial diet, second instar larvae, five to seven days, 25° C., read-out: CL Rating (percent mortality)
Description: (§1) Certain molecules disclosed in this document were tested against BAW, CEW and CL using procedures described in the following examples. In the reporting of the results, the “BAW & CEW & CL Rating Table” was used (See Table Section).
Bioassays on CL (Trichoplusia ni)
Bioassays on CL were conducted using a 128-well diet tray assay. One to five second instar CL larvae were placed in each well (3 mL) of the diet tray that had been previously filled with 1 mL of artificial diet to which 50 μg/cm^2 of the test compound (dissolved in 50 μL of 90:10 acetone-water mixture) had been applied (to each of eight wells) and then allowed to dry. Trays were covered with a clear self-adhesive cover, and held at 25° C., 14:10 light-dark for five to seven days. Percent mortality was recorded for the larvae in each well; activity in the eight wells was then averaged. The results are indicated in the table entitled “Table 4: Assay Results Part 2” (See Table Section).

[2] = test system: Beet Armyworm (BAW) (Spodoptera exigua); assay: Bioassays on BAW, 128-well diet tray assay; format: in vivo; conditions: for mortality at 50 µg/cm2: Spodoptera exigua, 168 h, 50 μg/cm^2 on artificial diet, second instar larvae, five to seven days, 25° C., read-out: BAW Rating (percent mortality); for BAW Rating: Beet Armyworm, 128-well diet tray assay, rating C = Not Tested (omitted), D = no activity noticed
Description: as §1
Bioassays on BAW (Spodoptera exigua)
Bioassays on BAW were conducted using a 128-well diet tray assay. One to five second instar BAW larvae were placed in each well (3 mL) of the diet tray that had been previously filled with 1 mL of artificial diet to which 50 μg/cm^2 of the test compound (dissolved in 50 μL of 90:10 acetone-water mixture) had been applied (to each of eight wells) and then allowed to dry. Trays were covered with a clear self-adhesive cover, and held at 25° C., 14:10 light-dark for five to seven days. Percent mortality was recorded for the larvae in each well; activity in the eight wells was then averaged. The results are indicated in the tables entitled “Table 3: Assay Results Part 1” and “Table 4: Assay Results Part 2” (See Table Section).

| SMILES | mortality at 50 µg/cm2 [1] [%] | mortality at 50 µg/cm2 [2] [%] | BAW Rating [2] |
| --- | --- | --- | --- |
| O=C(NC1(C(=O)NCC(F)(F)F)CC1)c1ccc(/C=C/[C@@H](c2cc(Cl)c(Cl)c(Cl)c2)C(F)(F)F)cc1C(F)(F)F (single isomer, unassigned) [Compound F8B] | 50 to 100 | 50 to 100 |  |
| CON(CC(F)(F)F)C(=O)C1(NC(=O)c2ccc(/C=C/C(c3cc(Cl)c(Cl)c(Cl)c3)C(F)(F)F)cc2C(F)(F)F)CC1 (centres unmarked) [FA49, (E)-N-(1-(Methoxy(2,2,2-trifluoroethyl)carbamoyl)cyclopropyl)-4-(4,4,4-trifluoro-3-(3,4,5-trichlorophenyl)but-1-en-1-yl)-2-(trifluoromethyl)benzamide] | 50 to 100 | 50 to 100 |  |
| O=C(NC1(C(=O)NCC(F)(F)F)CC1)c1ccc(/C=C/C(c2cc(Br)c(Cl)c(Br)c2)C(F)(F)F)cc1C(F)(F)F (centres unmarked) [FA7] | 50 to 100 | 50 to 100 |  |
| N#Cc1cc(C(/C=C/c2ccc(C(=O)NC3(C(=O)NCC(F)(F)F)CC3)c(Br)c2)C(F)(F)F)ccc1F (centres unmarked) [Compound P513] | 50 to 100 | 50 to 100 |  |
| O=C(NC1(C(=O)Nc2ccc(C(F)(F)F)cc2)CC1)c1ccc(/C=C/C(c2cc(Cl)c(Cl)c(Cl)c2)C(F)(F)F)cc1Br (centres unmarked) [FA36] | 0 | 0 |  |
| O=C(NC1(C(=O)NCC(F)(F)F)CC1)c1ccc(/C=C/C(c2cc(Cl)cc(Cl)c2)C(F)(F)C(F)(F)F)cc1C(F)(F)F (centres unmarked) [Compound P1045] | 50 to 100 | 50 to 100 |  |
| O=C(NC1(C(=O)NCC(F)(F)F)CC1)c1ccc(/C=C/C(c2cc(Cl)c(Cl)c(Cl)c2)C(F)(F)C(F)(F)F)cc1C(F)(F)F (centres unmarked) [Compound P1005] | 50 to 100 | 50 to 100 |  |
| CCNC(=O)NCc1ccc(/C=C/C(c2cc(Cl)cc(Cl)c2)C(F)(F)F)cc1Cl (centres unmarked) [CC31, (E)-1-(2-Chloro-4-(3-(3,5-dichlorophenyl)-4,4,4-trifluorobut-1-en-1-yl)benzyl)-3-ethylurea] |  |  | B (More than 0 - Less than 50) |
| N#CCN1CCC(NC(=O)c2ccc(/C=C/C(c3cc(Cl)c(Cl)c(Cl)c3)C(F)(F)F)cc2Br)CC1 (centres unmarked) [AC107] |  |  | B (More than 0 - Less than 50) |
| CCNC(=O)C1(NC(=O)c2ccc(/C=C/C(c3cc(Cl)c(Cl)c(Cl)c3)C(F)(F)F)cc2Br)CC1 (centres unmarked) [Compound P1023] | 50 to 100 | 50 to 100 |  |
| COc1ccccc1NC(=O)C1(NC(=O)c2ccc(/C=C/C(c3cc(Cl)c(Cl)c(Cl)c3)C(F)(F)F)cc2Br)CC1 (centres unmarked) [FA39] | 0 | 0 |  |
| O=C(NC1(C(=O)NCCn2cccn2)CC1)c1ccc(/C=C/C(c2cc(Cl)c(Cl)c(Cl)c2)C(F)(F)F)cc1Br (centres unmarked) [FA23] | 50 to 100 | 50 to 100 |  |
| O=C(NC1(C(=O)NCC(F)F)CC1)c1ccc(/C=C/C(c2cc(Br)cc(Br)c2)C(F)(F)F)cc1Br (centres unmarked) [Compound P1193] | 50 to 100 | 50 to 100 |  |
| Cc1cc(/C=C/C(c2cc(Cl)c(Cl)c(Cl)c2)C(F)(F)F)ccc1C(=O)NC1(C(=O)NCC(F)(F)F)CCC1 (centres unmarked) [FA1] | 50 to 100 | 50 to 100 |  |
| Cc1cc(/C=C/C(c2cc(Cl)c(Cl)c(Cl)c2)C(F)(F)F)ccc1C(=O)NC1(C(=O)NCC(F)(F)F)CC1 (centres unmarked) [Compound F2] | 50 to 100 | 50 to 100 |  |
| Cc1cc(C(/C=C/c2ccc(C(=O)NC3(C(=O)NCC(F)(F)F)CC3)c(C(F)(F)F)c2)C(F)(F)F)ccc1F (centres unmarked) [Compound P336] | 50 to 100 | 50 to 100 |  |
| O=C(NC1(C(=O)NCC(F)(F)F)CC1)c1ccc(/C=C/C(c2cccc(OC(F)(F)F)c2)C(F)(F)F)cc1Br (centres unmarked) [Compound P153] | 50 to 100 | 50 to 100 |  |
| O=C(NC1(C(=O)NCC2CCOC2)CC1)c1ccc(/C=C/C(c2cc(Cl)c(Cl)c(Cl)c2)C(F)(F)F)cc1Br (centres unmarked) [FA21] | 50 to 100 | 50 to 100 |  |
| O=C(NC1(C(=O)NCC(F)(F)F)CC1)c1ccc(/C=C/C(c2cc(F)cc(Br)c2)C(F)(F)F)cc1C(F)(F)F (centres unmarked) [Compound P200] | 50 to 100 | 50 to 100 |  |
| Cc1cc(/C=C/C(c2cc(Cl)c(Cl)c(Cl)c2)C(F)(F)F)ccc1C(=O)NC1(C(=S)NCC(F)(F)F)CC1 (centres unmarked) [Compound P1011] | 50 to 100 | 50 to 100 |  |
| O=C(NC1(C(=O)NC2CCCCC2)CC1)c1ccc(/C=C/C(c2cc(Cl)c(Cl)c(Cl)c2)C(F)(F)F)cc1Br (centres unmarked) [FA22] | 50 to 100 | 0 |  |

| SMILES | mortality at 50 µg/cm2 [1] [%] | mortality at 50 µg/cm2 [2] [%] | BAW Rating [2] |
| --- | --- | --- | --- |
| O=C(NC1(C(=O)NCC(F)(F)F)CC1)c1ccc(/C=C/C(c2cccc(OC(F)(F)F)c2)C(F)(F)F)cc1C(F)(F)F (centres unmarked) [Compound P155] | 50 to 100 | 50 to 100 |  |
| Cc1cc(C(/C=C/c2ccc(C(=O)NC3(C(=O)NCC(F)(F)F)CC3)c(C(F)(F)F)c2)C(F)(F)F)cc(C)c1F (centres unmarked) [Compound P335] | 50 to 100 | 50 to 100 |  |
| O=C(NC1CCN(C2COC2)CC1)c1ccc(/C=C/C(c2cc(Cl)c(Cl)c(Cl)c2)C(F)(F)F)cc1Br (centres unmarked) [AC108, (E)-2-Bromo-N-(1-(oxetan-3-yl)piperidin-4-yl)-4-(4,4,4-trifluoro-3-(3,4,5-trichlorophenyl)but-1-en-1-yl)benzamide] |  |  | B (More than 0 - Less than 50) |
| O=C(NC1(C(=O)NCC(F)F)CC1)c1ccc(/C=C/C(c2cc(Cl)c(Cl)c(Cl)c2)C(F)(F)F)cc1C(F)(F)F (centres unmarked) [Compound P1015] | 50 to 100 | 50 to 100 |  |
| O=C(NC1(C(=O)NCC(F)F)CC1)c1ccc(/C=C/C(c2cc(Br)cc(Br)c2)C(F)(F)F)cc1C(F)(F)F (centres unmarked) [Compound P1195] | 50 to 100 | 50 to 100 |  |
| O=C(NC1(C(=O)NCC(F)(F)F)CC1)c1ccc(/C=C/C(c2cc(Cl)cc(Cl)c2)C(F)(F)C(F)(F)F)cc1Br (centres unmarked) [Compound P1043] | 50 to 100 | 50 to 100 |  |
| CCc1cc(Cl)cc(C(/C=C/c2ccc(C(=O)NC3(C(=O)NCC(F)(F)F)CC3)c(C(F)(F)F)c2)C(F)(F)F)c1 (centres unmarked) [FA10] | 50 to 100 | 50 to 100 |  |
| O=C(NC1(C(=O)NCCF)CC1)c1ccc(/C=C/C(c2cc(Br)cc(Br)c2)C(F)(F)F)cc1C(F)(F)F (centres unmarked) [Compound P1200] | 50 to 100 | 50 to 100 |  |
| O=C(NC1(C(=O)NCC(F)(F)F)CC1)c1ccc(/C=C/C(c2ccc(F)c(F)c2F)C(F)(F)F)cc1C(F)(F)F (centres unmarked) [Compound P65] | 50 to 100 | 50 to 100 |  |
| COc1ccc(N(C)C(=O)C2(NC(=O)c3ccc(/C=C/C(c4cc(Cl)c(Cl)c(Cl)c4)C(F)(F)F)cc3Br)CC2)cc1 (centres unmarked) [FA41] | 50 to 100 | 50 to 100 |  |
| O=C(NC1(C(=O)NC2COC2)CC1)c1ccc(/C=C/C(c2cc(Cl)c(Cl)c(Cl)c2)C(F)(F)F)cc1Br (centres unmarked) [FA20] | 50 to 100 | 50 to 100 |  |
| COCCNC(=O)C1(NC(=O)c2ccc(/C=C/C(c3cc(Cl)c(Cl)c(Cl)c3)C(F)(F)F)cc2Br)CC1 (centres unmarked) [FA28] | 50 to 100 | 50 to 100 |  |
| COc1ccccc1CN(C)C(=O)C1(NC(=O)c2ccc(/C=C/C(c3cc(Cl)c(Cl)c(Cl)c3)C(F)(F)F)cc2Br)CC1 (centres unmarked) [FA46] | 50 to 100 | 0 to 50 |  |
| O=C(NC1(C(=O)NCC(F)(F)F)CC1)c1ccc(/C=C/C(c2cc(Cl)c(Br)c(Cl)c2)C(F)(F)F)cc1C(F)(F)F (centres unmarked) [FA8] | 50 to 100 | 50 to 100 |  |
| Cc1cc(C(/C=C/c2ccc(C(=O)NC3(C(=O)NCC(F)(F)F)CC3)c(Br)c2)C(F)(F)F)cc(Cl)c1Cl (centres unmarked) [FA4] | 50 to 100 | 50 to 100 |  |
| O=C(NC1(C(=O)NCC(F)(F)F)CC1)c1ccc(/C=C/C(c2cc(Cl)c(Cl)c(Cl)c2)C(F)(F)F)cc1Cl (centres unmarked) [Compound F1, (E)-2-Chloro-4-(4,4,4-trifluoro-3-(3,4,5-trichlorophenyl)but-1-enyl)-N-(1-(2,2,2-trifluoroethylcarbamoyl)cyclopropyl)benzamide] | 50 to 100 | 50 to 100 |  |
| O=C(NC1(C(=O)NCC(F)(F)F)CC1)c1ccc(/C=C/C(c2cc(Cl)cc(Cl)c2)C(F)(F)F)cc1Br (centres unmarked) [Compound P1048] | 50 to 100 | 50 to 100 |  |
| O=C(NC1(C(=O)NCC(F)(F)F)CC1)c1ccc(/C=C/C(c2ccc(Cl)c(Cl)c2)C(F)(F)F)cc1C(F)(F)F (centres unmarked) [Compound P1095] | 50 to 100 | 50 to 100 |  |
| FC(F)(F)C(/C=C/c1ccc(-n2cncn2)cc1)c1ccccc1 (centres unmarked) [DC3] |  |  | B (More than 0 - Less than 50) |
| O=C(NCCc1ccc(Cl)nc1)c1ccc(/C=C/C(c2cc(Cl)c(Cl)c(Cl)c2)C(F)(F)F)cc1Br (centres unmarked) [AC113] |  |  | B (More than 0 - Less than 50) |
